Test results reported in PubChem BioAssay AID1963967 (Molecular Pharmacology Branch, DTP, NCI, 2024).
Where “and” joins values, the source holds several entries; their conditions need not be identical. Equal values may be shown once.

System: 855422-203-R-J1-PDC spheroids with HUVEC/MSC, viability
Experiment: Anticancer human tumor 855422-203-R-J1-PDC patient-derived bladder carcinoma cell line growth inhibition [PI3K]
Conditions: for viability, T/C: stronger effect = lower value; active means viability on the fitted dose curve at most 10% of control; inactive means the rest
Summary of the method: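 Complex 3D spheroids (cancer cells + endothelial HUVEC + mesenchymal stem cells); drug pairs of targeted agent x inavolisib/alpelisib/duvelisib/copanlisib; half-log series from ~Cmax, max 10 microM if Cmax unknown; endpoint viability.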

[1] = curve of first compound, second compound 0.0316 µM
[2] = curve of first compound, second compound 0.1 µM
[3] = curve of first compound, second compound 0.316 µM
[4] = curve of first compound, second compound 1 µM
[5] = curve of first compound, second compound 3.16 µM
[6] = curve of first compound, second compound 10 µM
[7] = second compound 0.0316 µM, first compound 0.0316 µM
[8] = second compound 0.0316 µM, first compound 0.1 µM
[9] = second compound 0.1 µM, first compound 0.0316 µM
[10] = second compound 0.1 µM, first compound 0.1 µM
[11] = second compound 0.316 µM, first compound 0.0316 µM
[12] = second compound 0.316 µM, first compound 0.1 µM
[13] = second compound 1 µM, first compound 0.0316 µM
[14] = second compound 1 µM, first compound 0.1 µM
[15] = second compound 3.16 µM, first compound 0.0316 µM
[16] = second compound 3.16 µM, first compound 0.1 µM
[17] = second compound 10 µM, first compound 0.0316 µM
[18] = second compound 10 µM, first compound 0.1 µM
[19] = second compound 0.0316 µM, first compound 0.316 µM
[20] = second compound 0.0316 µM, first compound 1 µM
[21] = second compound 0.0316 µM, first compound 3.16 µM
[22] = second compound 0.0316 µM, first compound 10 µM
[23] = second compound 0.1 µM, first compound 0.316 µM
[24] = second compound 0.1 µM, first compound 1 µM
[25] = second compound 0.1 µM, first compound 3.16 µM
[26] = second compound 0.1 µM, first compound 10 µM
[27] = second compound 0.316 µM, first compound 0.316 µM
[28] = second compound 0.316 µM, first compound 1 µM
[29] = second compound 0.316 µM, first compound 3.16 µM
[30] = second compound 0.316 µM, first compound 10 µM
[31] = second compound 1 µM, first compound 0.316 µM
[32] = second compound 1 µM, first compound 1 µM
[33] = second compound 1 µM, first compound 3.16 µM
[34] = second compound 1 µM, first compound 10 µM
[35] = second compound 3.16 µM, first compound 0.316 µM
[36] = second compound 3.16 µM, first compound 1 µM
[37] = second compound 3.16 µM, first compound 3.16 µM
[38] = second compound 3.16 µM, first compound 10 µM
[39] = second compound 10 µM, first compound 0.316 µM
[40] = second compound 10 µM, first compound 1 µM
[41] = second compound 10 µM, first compound 3.16 µM
[42] = second compound 10 µM, first compound 10 µM
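Further: agents incubated with spheroids for one week before read-out.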
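Wherever viability, T/C is given: 100% = DMSO vehicle-treated control wells.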

CC(=O)c1c(C)c2cnc(Nc3ccc(N4CCNCC4)cn3)nc2n(C2CCCC2)c1=O
> 0.1 µM: IC50 (curve of compound)
inactive: viability, T/C (compound 0.000316 µM) 105% (2×) and 96.8% and 106% | viability, T/C (compound 0.001 µM) 90.8% [middle of 4 runs] | viability, T/C (compound 0.00316 µM) 115% [middle of 4 runs] | viability, T/C (compound 0.01 µM) 100% (2×) and 98.9% and 98.4% | viability, T/C (compound 0.0316 µM) 99% [middle of 4 runs] | viability, T/C (compound 0.1 µM) 83.8% [middle of 4 runs]

CC(=O)c1c(C)c2cnc(Nc3ccc(N4CCNCC4)cn3)nc2n(C2CCCC2)c1=O + CC(Nc1ncnc2nc[nH]c12)c1cc2cccc(Cl)c2c(=O)n1-c1ccccc1
> 0.1 µM: IC50 [1] | IC50 [2] | IC50 [3] | IC50 [4] | IC50 [5]
0.0654 µM: IC50 [6]
inactive: viability, T/C (second compound 0.0316 µM, first compound 0.000316 µM) 106% | viability, T/C (second compound 0.0316 µM, first compound 0.001 µM) 95.8% | viability, T/C (second compound 0.0316 µM, first compound 0.00316 µM) 105% | viability, T/C (second compound 0.0316 µM, first compound 0.01 µM) 93.4% | viability, T/C [7] 100% | viability, T/C [8] 79% | viability, T/C (second compound 0.1 µM, first compound 0.000316 µM) 111% | viability, T/C (second compound 0.1 µM, first compound 0.001 µM) 92.5% | viability, T/C (second compound 0.1 µM, first compound 0.00316 µM) 105% | viability, T/C (second compound 0.1 µM, first compound 0.01 µM) 99.8% | viability, T/C [9] 94.4% | viability, T/C [10] 76.2% | viability, T/C (second compound 0.316 µM, first compound 0.000316 µM) 101% | viability, T/C (second compound 0.316 µM, first compound 0.001 µM) 108% | viability, T/C (second compound 0.316 µM, first compound 0.00316 µM) 110% | viability, T/C (second compound 0.316 µM, first compound 0.01 µM) 95.3% | viability, T/C [11] 105% | viability, T/C [12] 81.3% | viability, T/C (second compound 1 µM, first compound 0.000316 µM) 91.9% | viability, T/C (second compound 1 µM, first compound 0.001 µM) 102% | viability, T/C (second compound 1 µM, first compound 0.00316 µM) 102% | viability, T/C (second compound 1 µM, first compound 0.01 µM) 101% | viability, T/C [13] 95.9% | viability, T/C [14] 73.9% | viability, T/C (second compound 3.16 µM, first compound 0.000316 µM) 98.7% | viability, T/C (second compound 3.16 µM, first compound 0.001 µM) 96.4% | viability, T/C (second compound 3.16 µM, first compound 0.00316 µM) 101% | viability, T/C (second compound 3.16 µM, first compound 0.01 µM) 93.2% | viability, T/C [15] 85.4% | viability, T/C [16] 54% | viability, T/C (second compound 10 µM, first compound 0.000316 µM) 84.7% | viability, T/C (second compound 10 µM, first compound 0.001 µM) 84.3% | viability, T/C (second compound 10 µM, first compound 0.00316 µM) 80% | viability, T/C (second compound 10 µM, first compound 0.01 µM) 73.9% | viability, T/C [17] 74.3% | viability, T/C [18] 36.9%

Cn1nccc1Nc1nccc(-c2ccn(C(CO)c3ccc(Cl)c(F)c3)c(=O)c2)n1 (stereo not given) + CC(Nc1ccc2c(c1)OCCn1cc(N3C(=O)OCC3C(F)F)nc1-2)C(N)=O
3.78 µM: IC50 [2]
7.22 µM: IC50 (curve of first compound, second compound 0.00316 µM)
0.796 µM: IC50 [3]
5.55 µM: IC50 [1]
inactive: viability, T/C (second compound 0.00316 µM, first compound 0.0316 µM) 103% | viability, T/C (second compound 0.00316 µM, first compound 0.1 µM) 84.7% | viability, T/C (second compound 0.00316 µM, first compound 0.316 µM) 95.7% | viability, T/C (second compound 0.00316 µM, first compound 1 µM) 89.7% | viability, T/C (second compound 0.00316 µM, first compound 3.16 µM) 80.7% | viability, T/C (second compound 0.00316 µM, first compound 10 µM) 38.3% | viability, T/C (second compound 0.01 µM, first compound 0.0316 µM) 98.4% | viability, T/C (second compound 0.01 µM, first compound 0.1 µM) 96.2% | viability, T/C (second compound 0.01 µM, first compound 0.316 µM) 93.5% | viability, T/C (second compound 0.01 µM, first compound 1 µM) 82.8% | viability, T/C (second compound 0.01 µM, first compound 3.16 µM) 76% | viability, T/C (second compound 0.01 µM, first compound 10 µM) 37% | viability, T/C [7] 62.7% | viability, T/C [8] 82.1% | viability, T/C [19] 89.7% | viability, T/C [20] 82.8% | viability, T/C [21] 70.1% | viability, T/C [22] 29.1% | viability, T/C [9] 72.4% | viability, T/C [10] 79.4% | viability, T/C [23] 79.1% | viability, T/C [24] 64.7% | viability, T/C [25] 56.8% | viability, T/C [26] 20.2% | viability, T/C [11] 53.6% | viability, T/C [12] 52.5% | viability, T/C [27] 51.8% | viability, T/C [28] 49.5% | viability, T/C [29] 29.3% | viability, T/C [30] 10.6% | viability, T/C [13] 35.9% | viability, T/C [14] 32.2% | viability, T/C [31] 29.9% | viability, T/C [32] 26.4% | viability, T/C [33] 17.3%
6.7 µM: IC50 (curve of first compound, second compound 0.01 µM)
active: viability, T/C [34] 8.01%
< 0.0316 µM: IC50 [4]

C=CC(=O)N1CCN(c2nc(=O)n(-c3c(C)ccnc3C(C)C)c3nc(-c4c(O)cccc4F)c(F)cc23)C(C)C1 (stereo not given) + Cc1nc(NC(=O)N2CCCC2C(N)=O)sc1-c1ccnc(C(C)(C)C(F)(F)F)c1
inactive: viability, T/C [7] 111% | viability, T/C [8] 87.8% | viability, T/C [19] 119% | viability, T/C [20] 104% | viability, T/C [21] 109% | viability, T/C [22] 128% | viability, T/C [9] 108% | viability, T/C [10] 86.8% | viability, T/C [23] 106% | viability, T/C [24] 103% | viability, T/C [25] 117% | viability, T/C [26] 114% | viability, T/C [11] 94.7% | viability, T/C [12] 87.3% | viability, T/C [27] 104% | viability, T/C [28] 99.5% | viability, T/C [29] 117% | viability, T/C [30] 109% | viability, T/C [13] 75.9% | viability, T/C [14] 76.1% | viability, T/C [31] 82.6% | viability, T/C [32] 92.5% | viability, T/C [33] 101% | viability, T/C [34] 97.4% | viability, T/C [15] 50.6% | viability, T/C [16] 50.9% | viability, T/C [35] 58.5% | viability, T/C [36] 64% | viability, T/C [37] 80.4% | viability, T/C [38] 67.9% | viability, T/C [17] 26.9% | viability, T/C [18] 27.1% | viability, T/C [39] 31.5% | viability, T/C [40] 37.2% | viability, T/C [41] 41.2% | viability, T/C [42] 34.2%
< 0.0316 µM: IC50 [5] | IC50 [6]
> 10 µM: IC50 [1] | IC50 [2] | IC50 [3] | IC50 [4]

CC1(C)CCC(CN2CCN(c3ccc(C(=O)NS(=O)(=O)c4ccc(NCC5CCOCC5)c([N+](=O)[O-])c4)c(Oc4cnc5[nH]ccc5c4)c3)CC2)=C(c2ccc(Cl)cc2)C1 + CC(Nc1ncnc2nc[nH]c12)c1cc2cccc(Cl)c2c(=O)n1-c1ccccc1
inactive: viability, T/C [7] 118% | viability, T/C [8] 88.3% | viability, T/C [19] 114% | viability, T/C [20] 105% | viability, T/C [21] 81.1% | viability, T/C [9] 92% | viability, T/C [10] 101% | viability, T/C [23] 111% | viability, T/C [24] 117% | viability, T/C [25] 78.8% | viability, T/C [11] 104% | viability, T/C [12] 107% | viability, T/C [27] 105% | viability, T/C [28] 106% | viability, T/C [29] 84.2% | viability, T/C [13] 95.6% | viability, T/C [14] 106% | viability, T/C [31] 103% | viability, T/C [32] 98.4% | viability, T/C [33] 82.5% | viability, T/C [15] 99.9% | viability, T/C [16] 96.9% | viability, T/C [35] 104% | viability, T/C [36] 97.9% | viability, T/C [37] 83.9% | viability, T/C [17] 97.2% | viability, T/C [18] 79.9% | viability, T/C [39] 103% | viability, T/C [40] 89.1% | viability, T/C [41] 85.6%
5.09 µM: IC50 [5]
active: viability, T/C [22] 2.05% | viability, T/C [26] 1.83% | viability, T/C [30] 2.05% | viability, T/C [34] 2.34% | viability, T/C [38] 2.02% | viability, T/C [42] 2.02%
5.17 µM: IC50 [6]
4.87 µM: IC50 [2]
4.97 µM: IC50 [1]
5.04 µM: IC50 [4]
5.11 µM: IC50 [3]
